Literature values in US6409990B1, “Macromolecular carrier for drug and diagnostic agent delivery” (The Regents of the University of California, priority 1999, dated 2002).

Settings: similar time postinjection; Grist TM et al.

O=C([O-])CN(CCN(CC(=O)[O-])C[C@H](COP(=O)([O-])OC1CCC(c2ccccc2)(c2ccccc2)CC1)N(CC(=O)[O-])CC(=O)[O-])CC(=O)[O-].[Gd+3].[H+].[H+].[H+] [MS-325]
typical CNR in the human aorta: 42
